From the supplement of paper PMC12592484

Columns and labels:
Test in all cases: drug sensitivity score (DSS2, normalised partial AUC of dose-response, 72 h CellTiter-Glo viability) (DSS (dimensionless)); higher = more sensitive (stronger growth inhibition / cytotoxicity); extreme values may be limits of the assay
[1] = test system: 22Rv1
How it was run: (§1)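 Low-passage primary prostate cancer-associated fibroblasts, PF179T, WPMY-1, LNCaP and 22Rv1 cells were seeded into 384-well plates carrying pre-dispensed compounds at five doses covering a 10,000-fold range. After 72 h, viability was read by CellTiter-Glo 2.0 luminescence. Responses were scaled to vehicle and positive-control wells. The drug sensitivity score (DSS2) is a partial area under the fitted logistic dose–response curve divided by the log of its upper asymptote, computed in BREEZE; higher means more sensitive.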

[2] = test system: CAF#1 (primary prostate cancer-associated fibroblasts of myCAF-like type)
How it was run: as §1

[3] = test system: CAF#2 (primary prostate cancer-associated fibroblasts of iCAF-like type)
How it was run: as §1

[4] = test system: CAF#3 (primary prostate cancer-associated fibroblasts of myCAF-like type)
How it was run: as §1

[5] = test system: CAF#4 (primary prostate cancer-associated fibroblasts of iCAF-like type)
How it was run: as §1

[6] = test system: CAF#5 (primary prostate cancer-associated fibroblasts of myCAF-like type)
How it was run: as §1

[7] = test system: CAF#6 (primary prostate cancer-associated fibroblasts of iCAF-like type)
How it was run: as §1

[8] = test system: CAF#7 (primary prostate cancer-associated fibroblasts of myCAF-like type)
How it was run: as §1

[9] = test system: LNCAP
How it was run: as §1

[10] = test system: PF179T
How it was run: as §1

[11] = test system: WPMY-1
How it was run: as §1

| SMILES | drug sensitivity score [1] | drug sensitivity score [2] | drug sensitivity score [3] | drug sensitivity score [4] | drug sensitivity score [5] | drug sensitivity score [6] | drug sensitivity score [7] | drug sensitivity score [8] | drug sensitivity score [9] | drug sensitivity score [10] | drug sensitivity score [11] |
| --- | --- | --- | --- | --- | --- | --- | --- | --- | --- | --- | --- |
| Cc1cc(OCc2nnc(SC3CCCC3)n2-c2cccnc2)ccc1-c1ccc(S(C)(=O)=O)cc1 [NMS-873] (tested concentration range 1-10000 nM) | 12.4 | 4.8 | 8.5 | 8 | 5.7 | 5.6 | 5.9 | 5.1 | 18.4 | 15 | 14.6 |
| CC[C@@H](C(=O)[C@@H](C)[C@@H](O)[C@H](C)[C@@H]1O[C@@H]([C@@H](CC)C(=O)O)CC[C@@H]1C)[C@H]1O[C@]2(C=C[C@@H](O)[C@]3(CC[C@@](C)([C@H]4CC[C@](O)(CC)[C@H](C)O4)O3)O2)[C@H](C)C[C@@H]1C [Salinomycin] (tested concentration range 5-50000 nM) | 26.4 | 26.8 | 26.5 | 9.4 | 25.2 | 23.6 | 21.2 | 18.5 | 29.1 | 19.1 | 28.8 |
| O=C(O)c1ccc(-c2c[nH]c3ncc(-c4ccccc4)cc23)cc1C1CCCC1 (tested concentration range 1-10000 nM) | 0 | 0 | 2.3 | 0 | 0 | 0.8 | 0 | 0 | 0 | 0.1 | 2.4 |
| Nc1ccn([C@@H]2O[C@H](CO)[C@@H](O)[C@@H]2O)c(=O)n1 [Cytarabine] (tested concentration range 1-10000 nM) | 14.3 | 1.8 | 10 | 0 | 5.4 | 1.9 | 0.5 | 2.6 | 11.9 | 12.9 | 7.7 |
| CCc1cnn2c(NCc3ccc[n+]([O-])c3)cc(N3CCCC[C@H]3CCO)nc12 [Dinaciclib] (tested concentration range 0.1-1000 nM) | 21.5 | 18.5 | 18.2 | 12.3 | 13 | 18 | 14.2 | 15.9 | 27.6 | 10.6 | 18.9 |
| CC/C(=C(\c1ccccc1)c1ccc(OCCN(C)C)cc1)c1ccccc1 [Tamoxifen] (tested concentration range 1-10000 nM) | 3.7 | 0.1 | 1.3 | 2.5 | 1.1 | 2 | 2.6 | 1.9 | 4.1 | 0 | 5 |
| Cc1ncc(Cl)cc1NCc1ccc(C(=O)N[C@@H](CC2CCCC2)C(=O)NC2CC2)s1 (tested concentration range 0.5-5000 nM) | 0 | 0 | 3 | 0.4 | 0.6 | 2.1 | 0 | 1.2 | 2 | 3.7 | 0 |
| NC1(C(=O)N[C@@H](CCO)c2ccc(Cl)cc2)CCN(c2nc[nH]c3nccc2-3)CC1 [Capivasertib] (tested concentration range 1-10000 nM) | 7.2 | 4.5 | 4.1 | 0 | 0.3 | 3.6 | 2.7 | 2.4 | 23.5 | 4.6 | 3 |
| COc1c(OCCCN2CCOCC2)ccc2c1N=C(NC(=O)c1cnc(N)nc1)N1CCN=C21 [Copanlisib] (tested concentration range 0.1-1000 nM) | 14.1 | 7.7 | 9.8 | 6 | 8.7 | 9.9 | 7 | 7.5 | 4.7 | 8.8 | 7.7 |
| CCS(=O)(=O)N1CCN(c2ccc(Nc3ncc(C(N)=O)c(NC4CC4)n3)cc2)CC1 [Cerdulatinib] (tested concentration range 1-10000 nM) | 0 | 6.1 | 3.7 | 0 | 0 | 3.8 | 0.4 | 0.1 | 4.4 | 2.7 | 8.8 |
| CN(C)C1CCN(C(=O)c2ccc(NC(=O)Nc3ccc(-c4nc(N5CCOCC5)nc(N5CCOCC5)n4)cc3)cc2)CC1 [Gedatolisib] (tested concentration range 0.1-1000 nM) | 22.5 | 5.9 | 5.1 | 8.9 | 5.6 | 9.8 | 10.9 | 13.1 | 19.8 | 8.1 | 14.8 |
| CCN(CC)CCOc1ccc(C(=C(Cl)c2ccccc2)c2ccccc2)cc1 [Clomifene] (tested concentration range 1-10000 nM) | 5.7 | 2.3 | 5.8 | 4.2 | 4 | 3.7 | 4 | 3.7 | 4.8 | 6 | 5.5 |
| CC[C@@]1(O)C(=O)OCc2c1cc1n(c2=O)Cc2cc3c(CN(C)C)c(O)ccc3nc2-1 [Topotecan] (tested concentration range 1-10000 nM) | 24.5 | 8.9 | 10.3 | 4.8 | 8.1 | 6.9 | 4.8 | 5.3 | 22.7 | 8.7 | 14.6 |
| CN1CCN(c2cc(C(=O)Nc3ccc4c(c3)-c3c(c(C(N)=O)nn3-c3ccc(F)cc3)CC4)c(Cl)cn2)CC1 [PHA 408] (tested concentration range 1-10000 nM) | 6.1 | 7.2 | 7 | 2.9 | 4.2 | 5.9 | 1.2 | 3.7 | 7.4 | 1.4 | 4.6 |
| CN1CC[C@@H](NC(=O)Nc2ccc(C#N)cc2)C[C@@H]1c1nc2ccccc2[nH]1 [Glasdegib] (tested concentration range 0.1-1000 nM) | 0 | 0 | 0 | 0.1 | 0 | 0 | 0.3 | 0 | 0 | 0 | 0 |
| Cc1cc2c(F)c(Oc3ncnn4cc(OC[C@@H](C)O)c(C)c34)ccc2[nH]1 [Brivanib] (tested concentration range 0.1-1000 nM) | 0 | 0 | 0 | 0 | 0 | 0 | 0 | 0 | 1.2 | 0 | 0 |
| COc1cc([C@@H]2c3cc4c(cc3[C@@H](O[C@@H]3O[C@@H]5CO[C@@H](C)O[C@H]5[C@H](O)[C@H]3O)[C@H]3COC(=O)[C@H]23)OCO4)cc(OC)c1O [Etoposide] (tested concentration range 1-10000 nM) | 10.1 | 2.3 | 5.9 | 2.6 | 0.9 | 3 | 2.8 | 5.1 | 9.9 | 5.8 | 9 |
| Cc1ccc(-c2cc(C(F)(F)F)nn2-c2ccc(S(N)(=O)=O)cc2)cc1 [Celecoxib] (tested concentration range 1-10000 nM) | 0 | 0 | 0 | 0 | 0 | 0 | 0 | 0 | 1.2 | 0 | 0 |
| Cc1c(F)cc(C(=O)NC2CC2)cc1-c1ccc(C(=O)NCC(C)(C)C)cn1 [Losmapimod] (tested concentration range 1-10000 nM) | 0 | 0 | 0 | 0 | 0 | 0 | 0 | 0 | 3.7 | 0 | 0 |
| COc1cc2c(Oc3ccc(NC(=O)C4(C(=O)Nc5ccc(F)cc5)CC4)cc3F)ccnc2cc1OCCCN1CCOCC1 [Foretinib] (tested concentration range 0.1-1000 nM) | 3.4 | 6.8 | 10.3 | 7.9 | 6.9 | 6.7 | 5.2 | 7 | 5.6 | 6.8 | 7.9 |
| CO[C@@H](C)Cn1c(=O)n(C)c2cnc3ccc(-c4cncc(C(C)(C)O)c4)cc3c21 (tested concentration range 0.2-2500 nM) | 16.8 | 14.1 | 13.5 | 10.3 | 10.7 | 14.5 | 10.9 | 10.5 | 16.8 | 14.1 | 12 |
| CC(C)Cn1cnc2c(N)nc3ccccc3c21 [Imiquimod] (tested concentration range 0.2-2500 nM) | 0 | 1.4 | 0 | 0.1 | 0 | 0 | 0 | 0 | 0 | 0 | 0 |
| COC[C@H](NC(=O)c1cnc(C)s1)C(=O)N[C@@H](COC)C(=O)N[C@@H](Cc1ccccc1)C(=O)[C@@]1(C)CO1 [Oprozomib] (tested concentration range 0.2-2500 nM) | 20.7 | 14 | 16 | 10.3 | 11.4 | 13.1 | 10.5 | 9.7 | 20.8 | 14.6 | 25.7 |
| CS(=O)(=O)N1CCN(Cc2cc3nc(-c4cccc5[nH]ncc45)nc(N4CCOCC4)c3s2)CC1 [Pictilisib] (tested concentration range 1-10000 nM) | 16.1 | 11.7 | 11.5 | 10.9 | 10.9 | 12 | 7.7 | 9.3 | 13.7 | 11.2 | 12 |
| CCCCCCCCc1ccc(CCC(N)(CO)CO)cc1 [Fingolimod] (tested concentration range 1-10000 nM) | 7 | 5.4 | 5.3 | 5.2 | 6 | 6.8 | 5.9 | 6.3 | 7.9 | 5.1 | 6.7 |
